Source: ChEMBL document CHEMBL5291721, “A preclinical secondary pharmacology resource illuminates target-adverse drug reaction associations of marketed drugs” (Nat Commun, 2023)

Columns and labels:
D(3) dopamine receptor = D(3) dopamine receptor (Homo sapiens, UniProt P35462)
[1] = molecular target: T1, Muscarinic acetylcholine receptor M1 (Homo sapiens, UniProt P11229); assay type: functional, cell-based
T1 sequence (P11229 whole entry): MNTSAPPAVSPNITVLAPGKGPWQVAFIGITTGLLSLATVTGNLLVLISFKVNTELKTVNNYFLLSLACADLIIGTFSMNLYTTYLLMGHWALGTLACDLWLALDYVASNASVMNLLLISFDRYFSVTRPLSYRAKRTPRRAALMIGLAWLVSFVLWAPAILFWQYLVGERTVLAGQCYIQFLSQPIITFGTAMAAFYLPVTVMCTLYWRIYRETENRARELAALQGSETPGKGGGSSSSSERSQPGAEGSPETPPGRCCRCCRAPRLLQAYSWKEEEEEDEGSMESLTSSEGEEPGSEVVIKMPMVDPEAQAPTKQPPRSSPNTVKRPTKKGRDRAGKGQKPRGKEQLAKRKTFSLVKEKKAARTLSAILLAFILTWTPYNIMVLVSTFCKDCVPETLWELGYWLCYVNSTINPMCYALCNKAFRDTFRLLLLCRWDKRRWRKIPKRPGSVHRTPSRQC

Thromboxane A2 receptor = molecular target: T2, Thromboxane A2 receptor (Homo sapiens, UniProt P21731); assay type: functional, cell-based
T2 sequence (P21731 whole entry): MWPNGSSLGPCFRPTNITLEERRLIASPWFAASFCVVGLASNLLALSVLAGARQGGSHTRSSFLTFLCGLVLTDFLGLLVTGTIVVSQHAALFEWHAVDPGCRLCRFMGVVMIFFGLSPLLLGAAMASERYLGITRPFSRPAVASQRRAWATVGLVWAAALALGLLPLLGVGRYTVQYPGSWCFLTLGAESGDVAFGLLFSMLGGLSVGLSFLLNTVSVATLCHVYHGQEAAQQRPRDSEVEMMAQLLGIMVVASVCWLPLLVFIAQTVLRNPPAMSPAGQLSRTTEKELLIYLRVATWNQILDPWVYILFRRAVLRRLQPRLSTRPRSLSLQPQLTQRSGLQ

[2] = molecular target: T3, Gastrin/cholecystokinin type B receptor (Homo sapiens, UniProt P32239)
T3 sequence (P32239 whole entry): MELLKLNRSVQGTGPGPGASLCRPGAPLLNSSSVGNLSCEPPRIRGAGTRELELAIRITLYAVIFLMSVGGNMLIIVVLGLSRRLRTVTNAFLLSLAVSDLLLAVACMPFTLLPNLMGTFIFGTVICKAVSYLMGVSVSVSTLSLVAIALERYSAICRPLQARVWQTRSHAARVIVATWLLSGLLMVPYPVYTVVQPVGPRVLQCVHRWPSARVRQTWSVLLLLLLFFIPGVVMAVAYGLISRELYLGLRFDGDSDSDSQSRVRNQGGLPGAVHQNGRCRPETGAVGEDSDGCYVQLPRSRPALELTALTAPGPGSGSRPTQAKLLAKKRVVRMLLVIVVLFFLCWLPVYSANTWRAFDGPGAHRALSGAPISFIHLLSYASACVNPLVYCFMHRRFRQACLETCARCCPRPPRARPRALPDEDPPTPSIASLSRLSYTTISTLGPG

[3] = molecular target: T4, Muscarinic acetylcholine receptor M2 (Homo sapiens, UniProt P08172); assay type: functional, cell-based
T4 sequence (P08172 whole entry): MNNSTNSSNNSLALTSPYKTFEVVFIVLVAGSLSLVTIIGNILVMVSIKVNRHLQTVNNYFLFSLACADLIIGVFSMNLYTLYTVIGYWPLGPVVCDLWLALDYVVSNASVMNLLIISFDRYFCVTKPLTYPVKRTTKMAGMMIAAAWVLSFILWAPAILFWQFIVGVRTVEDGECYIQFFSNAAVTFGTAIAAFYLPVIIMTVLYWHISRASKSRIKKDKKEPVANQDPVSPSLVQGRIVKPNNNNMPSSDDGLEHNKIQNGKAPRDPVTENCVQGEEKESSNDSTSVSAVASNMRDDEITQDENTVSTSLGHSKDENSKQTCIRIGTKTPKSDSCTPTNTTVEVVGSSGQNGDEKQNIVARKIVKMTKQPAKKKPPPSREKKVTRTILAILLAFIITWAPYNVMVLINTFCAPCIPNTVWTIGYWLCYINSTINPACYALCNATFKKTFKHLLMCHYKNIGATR

[4] = molecular target: T5, Alpha-1A adrenergic receptor (Homo sapiens, UniProt P35348)
T5 sequence (P35348 whole entry): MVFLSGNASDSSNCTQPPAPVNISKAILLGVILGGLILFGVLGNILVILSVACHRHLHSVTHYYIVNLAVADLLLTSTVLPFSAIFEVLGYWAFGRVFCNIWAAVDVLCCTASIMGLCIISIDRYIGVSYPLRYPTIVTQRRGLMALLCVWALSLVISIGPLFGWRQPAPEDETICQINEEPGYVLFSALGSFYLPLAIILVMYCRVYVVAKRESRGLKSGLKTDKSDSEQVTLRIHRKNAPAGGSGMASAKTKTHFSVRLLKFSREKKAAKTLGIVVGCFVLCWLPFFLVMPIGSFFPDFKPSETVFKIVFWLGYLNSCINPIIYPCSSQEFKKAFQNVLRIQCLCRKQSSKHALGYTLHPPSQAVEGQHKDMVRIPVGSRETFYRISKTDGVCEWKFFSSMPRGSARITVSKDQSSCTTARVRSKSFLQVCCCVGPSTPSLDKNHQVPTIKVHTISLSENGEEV

[5] = molecular target: T6, 5-hydroxytryptamine receptor 1A (Homo sapiens, UniProt P08908); assay type: functional, cell-based
T6 sequence (P08908 whole entry): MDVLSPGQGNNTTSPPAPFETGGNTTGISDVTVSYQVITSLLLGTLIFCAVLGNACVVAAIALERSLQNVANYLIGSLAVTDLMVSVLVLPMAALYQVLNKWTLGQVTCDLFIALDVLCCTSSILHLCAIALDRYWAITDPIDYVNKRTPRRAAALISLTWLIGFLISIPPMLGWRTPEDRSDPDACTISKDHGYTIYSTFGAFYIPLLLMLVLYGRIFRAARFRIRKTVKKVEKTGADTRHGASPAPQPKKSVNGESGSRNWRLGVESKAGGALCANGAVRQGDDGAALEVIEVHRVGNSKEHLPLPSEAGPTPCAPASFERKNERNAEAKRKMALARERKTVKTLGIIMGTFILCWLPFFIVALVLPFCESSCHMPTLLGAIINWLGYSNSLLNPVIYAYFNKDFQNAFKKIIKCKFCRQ
Also: assay procedure not described here.

D(3) dopamine receptor, sequence (P35462 whole entry): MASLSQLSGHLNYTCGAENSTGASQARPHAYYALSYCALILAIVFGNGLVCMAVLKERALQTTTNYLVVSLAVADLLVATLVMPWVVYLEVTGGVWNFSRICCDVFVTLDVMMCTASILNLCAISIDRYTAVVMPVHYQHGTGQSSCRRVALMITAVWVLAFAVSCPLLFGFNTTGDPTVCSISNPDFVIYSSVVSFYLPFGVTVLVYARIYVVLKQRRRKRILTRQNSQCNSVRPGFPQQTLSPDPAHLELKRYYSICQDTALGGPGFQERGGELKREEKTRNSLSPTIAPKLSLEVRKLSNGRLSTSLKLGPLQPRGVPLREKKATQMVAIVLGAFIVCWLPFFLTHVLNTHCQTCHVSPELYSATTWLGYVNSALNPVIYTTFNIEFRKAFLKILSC

Structure (SMILES) | AC50 (D(3) dopamine receptor) | AC50 [1] | AC50 (Thromboxane A2 receptor) | AC50 [2] | AC50 [3] | AC50 [4] | AC50 [5]
COc1cc2c(cc1OC)CC(=O)N(CCCN(C)C[C@H]1Cc3cc(OC)c(OC)cc31)CC2 [IVABRADINE] | 2.61 µM | > 30 µM | > 30 µM | – | – | – | –
CCC(=O)O[C@]1(C(=O)SCF)[C@H](C)C[C@H]2[C@@H]3C[C@H](F)C4=CC(=O)C=C[C@]4(C)[C@@]3(F)[C@@H](O)C[C@@]21C [FLUTICASONE PROPIONATE] | > 30 µM | > 30 µM | > 30 µM | > 30 µM | > 30 µM | > 10 µM | > 10 µM
COc1cc(N2CCC(N3CCN(C)CC3)CC2)ccc1Nc1ncc(Cl)c(Nc2ccccc2P(C)(C)=O)n1 [BRIGATINIB] | > 30 µM | > 30 µM | > 30 µM | – | – | – | –
CCN(CC)C(=S)S [DITIOCARB] | > 30 µM | > 30 µM | > 30 µM | – | – | – | –
CC[C@@H]([C@H](C)O)n1ncn(-c2ccc(N3CCN(c4ccc(OC[C@@H]5CO[C@@](Cn6cncn6)(c6ccc(F)cc6F)C5)cc4)CC3)cc2)c1=O [POSACONAZOLE] | > 30 µM | > 30 µM | > 30 µM | – | – | – | –
CCOC(=O)[C@H](CCc1ccccc1)N[C@@H](C)C(=O)N(CC(=O)O)C1Cc2ccccc2C1 | > 30 µM | > 30 µM | > 30 µM | – | – | – | –
CCC(=O)O[C@]1(C(=O)CCl)[C@@H](C)C[C@H]2[C@@H]3C[C@H](F)C4=CC(=O)C=C[C@]4(C)[C@@]3(F)[C@@H](O)C[C@@]21C [HALOBETASOL PROPIONATE] | > 30 µM | > 30 µM | > 30 µM | – | – | – | –
NCC(CC(=O)O)c1ccccc1 (stereo not given) [PHENIBUT] | > 30 µM | > 30 µM | > 30 µM | – | – | – | –
c1ccc2c(c1)CCc1ccccc1N2C1CN2CCC1CC2 (stereo not given) [QUINUPRAMINE] | 6.47 µM | > 30 µM | > 30 µM | – | – | – | –
CCOC(=O)N1CSC[C@H]1C(=O)O [TELMESTEINE] | > 30 µM | > 30 µM | > 30 µM | – | – | – | –
Cc1ncc(COP(=O)(O)O)c(C=O)c1O [PYRIDOXAL PHOSPHATE ANHYDROUS] | > 30 µM | > 30 µM | > 30 µM | – | – | – | –
CC(N)Cc1ccc(O)cc1 (stereo not given) [HYDROXYAMPHETAMINE] | > 30 µM | > 30 µM | > 30 µM | – | – | – | –
NC(=O)OCC(O)COc1ccc(Cl)cc1 (stereo not given) [CHLORPHENESIN CARBAMATE] | > 30 µM | > 30 µM | > 30 µM | – | – | – | –
C=CCSCC1Nc2cc(Cl)c(S(N)(=O)=O)cc2S(=O)(=O)N1 (stereo not given) [ALTHIAZIDE] | > 30 µM | > 30 µM | > 30 µM | – | – | – | –
CN1CCN(C2=Nc3ccccc3Oc3ccc(Cl)cc32)CC1 [LOXAPINE] | 0.019 µM | > 30 µM | > 30 µM | > 30 µM | – | – | > 10 µM
CN1C(=O)/C(=N\NC(N)=S)c2ccccc21 [METHISAZONE] | > 30 µM | 26.4 µM | 21.8 µM | – | – | – | –
CC(C)N(CCNC(=O)CN1CCCC1=O)C(C)C | > 30 µM | > 30 µM | > 30 µM | – | – | – | –
C[C@H](Cc1cc2c(c(C(N)=O)c1)N(CCCO)CC2)NCCOc1ccccc1OCC(F)(F)F [SILODOSIN] | 0.0483 µM | > 30 µM | > 30 µM | – | – | – | –
CCCc1nc(C(C)(C)O)c(C(=O)O)n1Cc1ccc(-c2ccccc2-c2nnn[nH]2)cc1 [OLMESARTAN] | > 30 µM | > 30 µM | > 30 µM | – | – | – | –
CN(C)CCOC(c1ccccc1)c1ccc(Br)cc1 (stereo not given) [BROMODIPHENHYDRAMINE] | 2.68 µM | > 30 µM | > 30 µM | – | – | – | –
Cc1cc(NC(=O)C2=C(O)c3ccccc3S(=O)(=O)N2C)no1 [ISOXICAM] | > 30 µM | > 30 µM | > 30 µM | – | – | – | –
CC1=CCC(C(C)(C)O)CC1O (stereo not given) [SOBREROL] | > 30 µM | > 30 µM | > 30 µM | – | – | – | –
Cc1cc(N)c2ccccc2[n+]1CCCCCCCCCC[n+]1c(C)cc(N)c2ccccc21 | 0.0798 µM | > 30 µM | > 30 µM | – | – | – | –
